Measured values reported in PubChem BioAssay (NCI).
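Growth conditions: 96-well plates. Treatment: test compound, 48 hours, 5 concentrations. Analysis: linear interpolation between bracketing concentrations; unreached endpoints set to highest concentration. TGI: concentration producing complete growth inhibition.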

Tests used:
Experiment in all cases: NCI tumour cell line growth inhibition, 48 h
[1] = tested on: NCI-H460 lung
[2] = tested on: CCRF-CEM leukemia
[3] = tested on: U251 CNS
[4] = tested on: OVCAR-8 ovarian
[5] = tested on: DMS 114 small cell lung
[6] = tested on: HCT-116 colon
[7] = tested on: A549 NSCLC
[8] = tested on: HCT-15 colon
[9] = tested on: SF-268 CNS
[10] = tested on: SR leukemia
[11] = tested on: SW-620 colon
[12] = tested on: HL-60(TB) leukemia
[13] = tested on: HOP-18 NSCLC
[14] = tested on: LOX IMVI melanoma
[15] = tested on: OVCAR-3 ovarian
[16] = tested on: UACC-62 melanoma
[17] = tested on: KM20L2 colon
[18] = tested on: DLD-1 colon
[19] = tested on: HT29 colon
[20] = tested on: K-562 leukemia
[21] = tested on: TK-10 renal
[22] = tested on: MOLT-4 leukemia
[23] = tested on: NCI-H23 lung
[24] = tested on: COLO 205 colon
[25] = tested on: M14 melanoma
[26] = tested on: OVCAR-5 ovarian
[27] = tested on: MALME-3M melanoma
[28] = tested on: SF-295 CNS
[29] = tested on: HOP-62 NSCLC
[30] = tested on: SK-MEL-5 melanoma
[31] = tested on: CAKI-1 renal
[32] = tested on: SF-539 CNS
[33] = tested on: A498 renal
[34] = tested on: SNB-75 CNS
[35] = tested on: IGROV1 ovarian
[36] = tested on: 786-0 renal
[37] = tested on: KM12 colon
[38] = tested on: SNB-78 CNS
[39] = tested on: NCI-H226 lung
[40] = tested on: UACC-257 melanoma
[41] = tested on: OVCAR-4 ovarian
[42] = tested on: HOP-92 NSCLC
[43] = tested on: ACHN renal
[44] = tested on: NCI-H522 lung
[45] = tested on: SK-MEL-2 melanoma
[46] = tested on: SK-OV-3 ovarian
[47] = tested on: SN12C renal
[48] = tested on: RPMI-8226 leukemia
[49] = tested on: SK-MEL-28 melanoma
[50] = tested on: DMS 273 small cell lung
[51] = tested on: LXFL 529 NSCLC
[52] = tested on: M19-MEL melanoma
[53] = tested on: UO-31 renal
[54] = tested on: RXF 393 renal
[55] = tested on: SNB-19 CNS
[56] = tested on: HCC-2998 colon
[57] = tested on: XF 498 CNS
[58] = tested on: EKVX NSCLC

NNc1cnn(-c2ccccc2)c(=O)c1Cl
TGI [1]: > 100 µM | TGI [2]: > 100 µM | TGI [3]: > 100 µM | TGI [4]: > 100 µM | TGI [5]: > 100 µM | TGI [6]: > 100 µM | TGI [7]: > 100 µM | TGI [8]: > 100 µM | TGI [9]: > 100 µM | TGI [10]: > 100 µM | TGI [11]: > 100 µM | TGI [12]: > 100 µM | TGI [13]: > 100 µM | TGI [14]: > 100 µM | TGI [15]: > 100 µM | TGI [16]: > 100 µM | TGI [17]: > 100 µM | TGI [18]: > 100 µM | TGI [19]: > 100 µM | TGI [20]: > 100 µM | TGI [21]: > 100 µM | TGI [22]: > 100 µM | TGI [23]: > 100 µM | TGI [24]: > 100 µM | TGI [25]: > 100 µM | TGI [26]: > 100 µM | TGI [27]: > 100 µM | TGI [28]: > 100 µM | TGI [29]: > 100 µM | TGI [30]: > 100 µM | TGI [31]: > 100 µM | TGI [32]: > 100 µM | TGI [33]: > 100 µM | TGI [34]: > 100 µM | TGI [35]: > 100 µM | TGI [36]: > 100 µM | TGI [37]: > 100 µM | TGI [38]: > 100 µM | TGI [39]: > 100 µM | TGI [40]: > 100 µM | TGI [41]: > 100 µM | TGI [42]: > 100 µM | TGI [43]: > 100 µM | TGI [44]: > 100 µM | TGI [45]: > 100 µM | TGI [46]: > 100 µM | TGI [47]: > 100 µM | TGI [48]: > 100 µM | TGI [49]: > 100 µM | TGI [50]: > 100 µM | TGI [51]: > 100 µM | TGI [52]: > 100 µM | TGI [53]: > 100 µM | TGI [54]: > 100 µM

Cc1cc(C)nc(/C(=N\NC(N)=O)C(=O)Nc2nc3ccc(C)cc3s2)c1
TGI [1]: > 100 µM | TGI [2]: > 77.8 µM | TGI [3]: > 100 µM | TGI [4]: > 100 µM | TGI [5]: > 81.9 µM | TGI [6]: > 100 µM | TGI [7]: > 100 µM | TGI [8]: > 100 µM | TGI [9]: > 100 µM | TGI [55]: > 100 µM | TGI [10]: 40.7 µM | TGI [11]: > 100 µM | TGI [56]: > 100 µM | TGI [12]: > 100 µM | TGI [13]: > 100 µM | TGI [14]: > 70.5 µM | TGI [57]: > 100 µM | TGI [15]: > 100 µM | TGI [16]: > 100 µM | TGI [17]: > 100 µM | TGI [18]: > 100 µM | TGI [19]: > 100 µM | TGI [20]: > 100 µM | TGI [21]: > 100 µM | TGI [22]: > 100 µM | TGI [23]: > 100 µM | TGI [24]: > 73.5 µM | TGI [25]: > 100 µM | TGI [26]: > 100 µM | TGI [27]: > 100 µM | TGI [28]: > 100 µM | TGI [29]: > 100 µM | TGI [30]: > 100 µM | TGI [31]: > 100 µM | TGI [32]: > 100 µM | TGI [33]: > 100 µM | TGI [34]: > 100 µM | TGI [35]: > 100 µM | TGI [36]: > 100 µM | TGI [37]: > 100 µM | TGI [38]: > 100 µM | TGI [39]: > 100 µM | TGI [40]: > 100 µM | TGI [41]: > 100 µM | TGI [42]: > 100 µM | TGI [43]: > 100 µM | TGI [44]: > 100 µM | TGI [58]: > 100 µM | TGI [45]: > 100 µM | TGI [46]: > 100 µM | TGI [47]: > 100 µM | TGI [48]: > 69.6 µM | TGI [49]: > 100 µM | TGI [50]: > 93.5 µM | TGI [51]: > 100 µM | TGI [52]: > 100 µM | TGI [53]: > 100 µM | TGI [54]: > 100 µM

CC(=O)NC(CCCCN)C(=O)NCc1ccccc1 (stereo not given)
TGI [1]: > 100 µM | TGI [2]: > 100 µM | TGI [3]: > 100 µM | TGI [4]: > 100 µM | TGI [5]: > 100 µM | TGI [6]: > 100 µM | TGI [7]: > 100 µM | TGI [8]: > 100 µM | TGI [9]: > 100 µM | TGI [55]: > 100 µM | TGI [11]: > 100 µM | TGI [56]: > 100 µM | TGI [14]: > 100 µM | TGI [57]: > 100 µM | TGI [15]: > 100 µM | TGI [16]: > 100 µM | TGI [17]: > 100 µM | TGI [18]: > 100 µM | TGI [19]: > 100 µM | TGI [20]: > 100 µM | TGI [21]: > 100 µM | TGI [22]: > 100 µM | TGI [23]: > 100 µM | TGI [24]: > 100 µM | TGI [25]: > 100 µM | TGI [26]: > 100 µM | TGI [27]: > 100 µM | TGI [28]: > 100 µM | TGI [29]: > 100 µM | TGI [30]: > 100 µM | TGI [31]: > 100 µM | TGI [32]: > 100 µM | TGI [33]: > 100 µM | TGI [34]: > 100 µM | TGI [35]: > 100 µM | TGI [36]: > 100 µM | TGI [37]: > 100 µM | TGI [39]: > 100 µM | TGI [40]: > 100 µM | TGI [41]: > 100 µM | TGI [42]: > 100 µM | TGI [43]: > 100 µM | TGI [44]: > 100 µM | TGI [58]: > 100 µM | TGI [45]: > 100 µM | TGI [46]: > 100 µM | TGI [47]: > 100 µM | TGI [48]: > 100 µM | TGI [49]: > 100 µM | TGI [50]: > 100 µM | TGI [51]: > 100 µM | TGI [52]: > 100 µM | TGI [53]: > 100 µM | TGI [54]: > 100 µM

O=C(N/C(=C\c1ccc(Br)cc1)c1nc2ccccc2[nH]1)c1ccccc1
TGI [2]: 70.2 µM | TGI [3]: 33.5 µM | TGI [4]: 40 µM | TGI [8]: 39.4 µM | TGI [55]: 41.6 µM | TGI [10]: 50.9 µM | TGI [11]: 29.6 µM | TGI [56]: 30.9 µM | TGI [57]: 34.2 µM | TGI [15]: 46.2 µM | TGI [16]: 43.6 µM | TGI [17]: 29.8 µM | TGI [18]: 59.8 µM | TGI [19]: 36.4 µM | TGI [20]: 52.6 µM | TGI [21]: 84.7 µM | TGI [22]: 67.4 µM | TGI [23]: 36 µM | TGI [24]: 41.1 µM | TGI [25]: 32.8 µM | TGI [26]: 52 µM | TGI [27]: 45.6 µM | TGI [28]: 64.5 µM | TGI [30]: 37 µM | TGI [31]: 65.1 µM | TGI [35]: 66.6 µM | TGI [37]: 33.5 µM | TGI [38]: 59.6 µM | TGI [41]: 36.5 µM | TGI [42]: 24.7 µM | TGI [44]: 29.8 µM | TGI [45]: 30.9 µM | TGI [46]: 86.3 µM | TGI [47]: 32.7 µM | TGI [49]: 30.3 µM | TGI [50]: 58.9 µM | TGI [51]: 30.9 µM | TGI [53]: 33.7 µM | TGI [54]: 30.4 µM
